Values quoted from earlier work in patent US7244749B2, “Compositions and methods for lowering plasma lipoprotein(a) and risk factors of cardiovascular diseases” (priority 2000, dated 2007).

System: plasma Lp(a)
Settings: males with prostatic cancer

**Q.** For Estrogen, which “reduction of plasma Lp(a)” value is on record?
**A.** 50%
